Article PMC12523804, “Evaluation of molecular mechanisms of (Z)-3-(pentadec-10′-enyl)-catechol (litreol) and synthetic derivatives as inhibitors of human leukotriene biosynthesis” (Redox Biology, 2025)

Legend:
ROS formation in PMNL = assay: ROS formation in neutrophils (DCF-DA); type: cell-based, human; conditions: 1 and 10 μM, 0.1 μM PMA
Method: Neutrophils (10^7 cells/mL in PG buffer) were pre-incubated for 15 min at 37 °C with litreol compounds, diphenyleneiodonium chloride (DPI, used as a positive control for ROS inhibition), or 0.1 % DMSO as vehicle control. Then, 2′,7′-dichlorofluorescence-diacetate (DCF-DA; 1 μg/mL) and CaCl2 (1 mM) were added 2 min prior to addition of 0.1 μM phorbol myristate acetate (PMA, AppliChem, Darmstadt, Germany). The fluorescence emission at 530 nm was measured after excitation at 485 nm in a thermally controlled (37 °C) NOVOstar microplate reader (BMG Labtechnologies GmbH, Offenburg, Germany).

intracellular Ca2+ = assay: Intracellular Ca2+ measurements in PMNL (Fura-2); type: cell-based, human; conditions: 1 μM compound
Method: PMNL (10^7 x ml PG buffer) were pre-stained with Fura-2/AM (2 μM) for 45 min at 37 °C in the dark. After two washing steps, cells were resuspended in PG buffer containing 0.1 % BSA at a density of 5 × 10^6/mL. 100 μL of the cell suspension was transferred into a 96-well plate and pre-incubated for 10 min at 37 °C with compound or vehicle (1 % DMSO), and 2 min prior stimulation 1 mM CaCl2 was added, following addition of 0.1 μM fMLP or 2 μM ionomycin as a positive control for Ca^2+ influx. The signal was monitored in a thermally (37 °C) controlled NOVOstar microplate reader (BMG Labtechnologies GmbH, Offenburg, Germany) (emission at 510 nm, excitation at 340 nm (Ca^2+-bound Fura-2) and 380 nm (free Fura-2). After cell lysis with Triton X-100 the maximal fluorescence signals were monitored and after chelating Ca^2+ with 10 mM EDTA the minimal fluorescence signals. The concentration of Ca^2+ was calculated from the ratio of the signals at 340 and 380 nm according to Grynkiewicz G et al..

5-LO = biological target: T1, 5-LO (Homo sapiens, UniProt P09917); assay: 5-LO product formation in intact human PMNL (neutrophils); type: cell-based; design: endogenous in cells; host or cells: human PMNL from peripheral blood of healthy volunteers; conditions: for IC50: intact human PMNL
T1 sequence (P09917 1-674): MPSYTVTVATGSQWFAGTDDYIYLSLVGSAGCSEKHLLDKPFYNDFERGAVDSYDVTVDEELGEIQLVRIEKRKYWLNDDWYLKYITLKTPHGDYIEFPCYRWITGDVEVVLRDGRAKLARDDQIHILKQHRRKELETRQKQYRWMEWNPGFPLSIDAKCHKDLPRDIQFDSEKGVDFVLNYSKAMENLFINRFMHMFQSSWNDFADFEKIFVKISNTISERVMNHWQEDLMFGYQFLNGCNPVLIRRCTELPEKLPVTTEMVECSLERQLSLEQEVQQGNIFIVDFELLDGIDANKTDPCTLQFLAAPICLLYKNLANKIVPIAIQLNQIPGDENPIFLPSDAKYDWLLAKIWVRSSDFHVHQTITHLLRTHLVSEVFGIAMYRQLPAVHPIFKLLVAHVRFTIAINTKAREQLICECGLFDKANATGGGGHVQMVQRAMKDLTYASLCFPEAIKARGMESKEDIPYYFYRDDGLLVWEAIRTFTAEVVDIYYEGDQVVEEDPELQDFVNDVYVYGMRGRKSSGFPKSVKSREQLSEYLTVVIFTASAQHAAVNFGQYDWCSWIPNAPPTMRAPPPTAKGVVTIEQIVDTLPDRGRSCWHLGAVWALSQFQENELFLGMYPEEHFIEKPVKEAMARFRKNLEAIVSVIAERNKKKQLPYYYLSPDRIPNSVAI
Method: PMNL and monocytes were isolated from human peripheral blood of adult healthy volunteers, with consent, obtained from the Institute of Transfusion Medi-cine, University Hospital Jena (Germany). PMNL were immediately isolated by dextran sedi-mentation, centrifugation on Nycoprep cushions, and hypotonic lysis of erythrocytes, as described. PMNL viability was analyzed by trypan blue exclusion with a Vi-cell counter (Beckmann Coulter GmbH, Krefeld). HEK-293 cells were grown in DMEM/High Glucose (4.5 g/L) medium supplemented with heat-inactivated fetal calf serum (FCS, 10 %, vv_1), 100 U/mLpenicillin, and 100 µg/mL streptomycin at 37 °C in a 5 % CO2 incubator. HEK-293 cells were stably transfected with 5-LO and FLAP as validated experimental cell-based model for studying the regulation of 5-LO [28]. None of the cell lines used in this study were authenticated.
Freshly isolated human PMNL (5 × 10^6) were resuspended in 1 mL PBS buffer containing 1 mg/mL glucose (PG buffer). […] After 10 min at 37 °C, the reaction was stopped with 1 mL of methanol for 10 min on ice and LO products formed and released in the supernatants were extracted and analyzed by HPLC. In detail, after centrifugation (800g, 10 min, room temperature) the samples were applied to C-18 solid-phase extraction columns (100 mg; IST, Mid Glamorgan, United Kingdom), preconditioned with 1 mL methanol and 1 mL water. The columns were washed with 1 mL water and 1 mL water/methanol (75/25, vol/vol) and 5-LO metabolites were eluted with 300 μL methanol. The extract was then diluted with 120 μL water, and 100 μL diluted extract were analyzed by HPLC using a C-18 Radial-Pak column (Waters) eluted with methanol/water/acetic acid 75/25/0.1 (vol/vol/vol) at a flow rate of 1.2 mL/min. Amounts of different metabolites were determined by peak area integration. 5-LO products analyzed include LTB4 and its two all-trans isomers, 5(S)-hydroxy-6-trans-8,11,14-cis-eicosatetraenoic acid (5-HETE), and 5(S)-hydroper-oxy-6-trans-8,11,14-cis-eicosatetraenoic acid (5-HpETE). 5-HETE and 5-HpETE coelute as one major peak, and the integration of this peak represented both eicosanoids.

[1] = Cell-based A23187 (IC50 of 5-LO product formation), […] A23187, 10 min
[2] = Cell-based A23187 + AA (IC50 of 5-LO product formation), […] A23187 plus 20 μM AA, 10 min

| Compound | ROS formation in PMA-stimulated PMNL (ROS formation in PMNL) | intracellular Ca2+ concentrations (intracellular Ca2+) | IC50 (5-LO; [1]) [µM] | IC50 (5-LO; [2]) [µM] | fold greater potency compared to hydrogenated analogue CS (5-LO; comparison of IC50 values (neutrophils and cell-free)) |
| --- | --- | --- | --- | --- | --- |
| CCCCCCCCCCCCCCCc1cccc(O)c1O [CS, 3-n-pentadecylcatechol] | not affected | Neither CS nor CI caused significant changes | 0.8 ± 0.5 | 0.07 | – |
| CCCC/C=C\CCCCCCCCCc1cccc(O)c1O [CI, (Z)-3-(pentadec-10′-enyl)-catechol] | not affected | Neither CS nor CI caused significant changes | 0.26 | 0.09 | 2.5- to 3 fold |
